Assay results published in patent US7943667B2, “Potentiating the effect of compound comprising nitric oxide” (Duke University, priority 2007, dated 2011).
Where two headings read alike, the source gives them in different places.

How the values were obtained:
lung cells = test: S-nitrosothiol uptake in lung cells (LAT / PEPT2 transport); assay type: cell-based, rat
Description: It was shown in a kidney cell line that transportation of extracellular S-nitrosothiols in the form of S-nitroso-L-cysteine through the L-type amnio acid transporter (LAT1) is necessary to achieve maximum intracellular S-nitrosothiol accumulation. It was also shown that eliminating the L-type amino acid transporter or blockade of the transporter severely limited the ability of extracellular S-nitroso-L-cysteine to gain entry into the kidney cell line. […] The results for kidney cell line were then obtained for umbilical endothelial cells. This reinforced our conception. We then performed exposures of rat pulmonary alveolar epithelial cells to a variety of S-nitrosothiol and nitric oxide donors and tested whether or not S-nitrosothiol and nitric oxide uptake required transnitrosylation of L-cysteine and uptake through L-type amino acid transport. In particular we conducted experiments using rat alveolar epithelial cells. […] We also tested the dipeptide transporter, PEPT2. […] When we added L-cysteine to the mixture, the high levels of S-nitrosothiol uptake in lung cells were restored, and this restoration was blocked when we blocked function of L-type amino acid transporter by competition or inhibition.
We conducted additional studies to determine if an alternate transporter, namely PEPT2, could account for some of the S-nitrosothiol uptake in lung cells. […] This confirmed the importance of L-cysteine as the carrier which is necessary to achieve high levels of S-nitrosothiols in lung cells. We confirmed these finding in freshly isolated lung cells as well.

[1] = Transwell air-liquid interface exposure to NO or ENO gas, intracellular NO signal (DAF-FM); assay type: cell-based; details: NO or ENO gas 10 ppm for 4 hours; for NO signal produced by ENO or NO gas: buffer with 0.2 mM glutathione
Description: Cells were plated onto rat-tail collagen coated plastic inserts in a transwell system. When cells were firmly adherent and intact in appearance by microscopy, usually 24 h after plating, cell inserts were incubated in DAF-FM diacetate for one hour, then rinsed in Hepes-buffered Hank's balanced salt solution without amino acids. Buffer was removed from the upper chamber of the transwell and replaced with phosphate-buffered saline containing 0.2 mM glutathione in order to mimic the glutathione levels found in human alveolar lining fluid. […] The volume added was a few microliters sufficient to produce a layer of buffer ˜2 micron in thickness, in an effort to model the alveolar lining fluid thickness in the mammalian lung. Cell inserts were incubated at air liquid interface for 30 minutes, then exposed to NO or ENO gas 10 ppm for 4 hours. Inserts were then placed into a fluorescent microplate reader to detect the intracellular NO signal.

[2] = system: Rat L2 (alveolar) cells, alveolar T1/T2 cells, alveolar macrophages; test: NO gas at air-liquid interface, DAF-FM NO signal in L2, alveolar T1/T2 cells and alveolar macrophages; assay type: cell-based; details: NO gas 10 ppm x 4 h; for NO signal in all cell types: D- or L-Cys 50 μM, 4-8 wells/group; for L-Cys increase of NO signal (effect of competitors): competitors 10 mM x 1 h
Description: Rat L2 (alveolar) cells were used at passage 30. 1° alveolar T1/T2 cells were isolated from adult rat lungs with antibody-coated magnetic beads, and identified by immunocytochemistry (T1: T1^α, aquaporin-5; T2: pro-SP-C). Alveolar macrophages were obtained by lavage. Cells were plated onto collagen-coated transwells, grown submerged×2d, then incubated with DAF-FM to detect NO. Apical medium was replaced by buffer+glutathione 0.2 mM,±D-or L-Cys 50 μM±LAT competitors L-Leu or BCH, 10 mM×1 h then exposed to air or NO gas 10 ppm×4 h. Fluorescence was read in 4-8 wells/condition. LAT-1 expression was measured/RT-PCR in air or 95% O2-exposed newborn rat lung (day 2, 3, 4, 8).

Rat alveolar (L2) cells [3] = test: Intracellular NO signal (DAF-FM fluorescence) in L2 cells incubated with ENO; assay type: cell-based; details: ENO 10 mM, L-Leu 10 mM; for ENO induced intracellular NO signal (DAF): L-Cys 0.5 mM, by 24 minutes, N=5/group, p<0.05
Description: (§1) Rat alveolar (L2) cells were located with DAF-FM (converted intracellularly to DAF; NO^++DAF→fluorescense), then incubated with ENO 10 mM+L-Cys 0.5 mM, L-Leu 10 mM (competitor for L-Cys entry via LAT1), or both L-Cys+L-Leu. DAF signal was measured at 5, 10, and 24 min. In parallel studies, S—NO was measured in L2 cell lysates after co-incubation with ENO 0.2 mM±L-Cys 0.5 mM±L-Leu 10 mM by ozone chemiluminescense (normalized to protein). LAT1 protein was detected by western and immunocytochemistry in 8d air or 95% O2—exposed rat lung.

Rat alveolar (L2) cells [4] = test: S-NO in L2 cell lysates by ozone chemiluminescence; assay type: cell-based; details: for ENO induced SNO accumulation: ENO 0.2 mM ± L-Cys 0.5 mM ± L-Leu 10 mM, N=2/group
Description: as §1

[5] = system: rat alveolar pulmonary epithelial cells (L2 and Type II); test: SNO/NO accumulation with NO donors in alveolar epithelial cells; assay type: cell-based; details: L-Cys added to NO donors; inhibited by co-incubation with LAT competitors
Description: We carried out experiments showing that addition of L-Cys to NO donors increased SNO/NO accumulation that was inhibited by co-incubation with LAT competitors in rat alveolar pulmonary epithelial cells (L2 and Type II). These are described in Granilla, O. M., AM. J. Physiol Lung Cell Mol. Physiol 295: L38-L43 (first published Apr. 25, 2008).

[6] = Working Example I: persistent pulmonary hypertension of the newborn; assay type: in vivo, human; details: L-cysteine 36 micrograms/kg by nebulizer, then inhaled ethyl nitrite or nitric oxide 1-50 ppm; from 88%
Description: A newborn is delivered at 41 weeks gestational age through thick meconium following a labor requiring augmentation with oxytocin. They are immediately noted at birth to experience respiratory distress and cyanosis. […] Their respiratory distress worsens requiring mechanical ventilation. […] The patient is treated with 36 micrograms/kg of L-cysteine by nebulizer attached to the inspiratory limb of the ventilator circuit, followed by initiation of inhaled ethyl nitrite or inhaled nitric oxide at 1-50 ppm. The patient SpO2 rises immediately from 88% to 100%, and systolic blood pressure improves. This example represents treatment of persistent pulmonary hypertension of the newborn.

[7] = Working Example II: prevention of bronchopulmonary dysplasia in a premature newborn; assay type: in vivo, human; details: L-cysteine 36 micrograms/kg daily with continuous ethyl nitrite 1-10 ppm for 14 days
Description: The patient is born at 25 weeks estimated gestational age following preterm prolonged spontaneous rupture of amniotic membranes. The patient requires immediate endotracheal intubation at birth as well as mechanical ventilation. The patient receives the usual neonatal intensive care including exogenous surfactant administration, indomethacin prophylaxis for prevention of intraventricular hemorrhage, and intravenous antibiotics. Because the patient is at high risk to develop bronchopulmonary dysplasia, the patient is treated each day with a single dose of 36 micrograms/kg of L-cysteine and continuous ethyl nitrite at 1-10 ppm for a total of 14 days. (This is done via […] unless the patient should be extubated, in which case the inhaled ethyl nitrite is delivered via nasal cannula and the L-cysteine is administered once a day via nebulizer) Within five days, the patient is weaned from mechanical ventilation and extubated to nasal continuous positive airway pressure, continuing to receive inhaled […] 1-10 ppm, and daily L-cysteine at 36 micrograms/kg. […], the continuous positive airway pressure is discontinued. […] the patient is discharged home, without any diagnosed complications of extreme prematurity. This example represents prevention of development of bronchopulmonary dysphasia in a premature newborn infant.

[8] = Newborn piglet saline-lavage lung injury with pulmonary hypertension, pulmonary artery pressure; assay type: in vivo; details: lungs lavaged with saline, inhaled NO 10 ppm, 56 Torr before treatment
Description: Newborn piglet was anesthetized and a thoracotomy was performed after placing arterial and venous monitoring catheters. A catheter was placed in the pulmonary artery and flow sensors around the pulmonary artery were placed.

## N[C@@H](CS)C(=O)NCC(=O)O [L-cysteinyl-glycine]
Lung cells
  uptake in lung cells via dipeptide transporter PEPT2: taken up

## N[C@H](CS)C(=O)O [D-cysteine]
[1]
  NO signal produced by ENO or NO gas: no effect
[2]
  NO signal in all cell types: not

## CCON=O [ENO, ethyl nitrite]
Rat alveolar (L2) cells [3]; 5, 10 and 24 min
  intracellular NO^+ (DAF): increased
Rat alveolar (L2) cells [4]; ENO 0.2 mM
  intracellular SNO: increased

## NC1(C(=O)O)CC2CCC1C2 (stereo not drawn) [BCH, 2-aminobicyclo-(2,2,1)-heptane-2-carboxylic acid]
[1]; with L-cysteine
  L-cysteine augmentation of NO signal (effect of LAT competitors): completely abolished
[2]
  L-Cys increase of NO signal (effect of competitors): blocked

## N[C@@H](CSN=O)C(=O)NCC(=O)O [S-nitroso-L-cysteinyl-glycine]
Lung cells
  S-nitrosothiol signal / accumulation in lung cells: could not achieve high levels
Lung cells; listed as S—NO-Cys-Gly
  S-nitrosothiol signal / accumulation in lung cells: did not significantly increase

## N[C@@H](CS)C(=O)O [L-cysteine]
Rat alveolar (L2) cells [3]
  ENO induced intracellular NO signal (DAF): augmented
Rat alveolar (L2) cells [4]
  ENO induced SNO accumulation: augmented
[1]
  NO signal produced by ENO or NO gas: augmentation
[2]
  NO signal in all cell types: increased
Lung cells
  S-nitrosothiol signal / accumulation in lung cells: restored
[5]
  SNO/NO accumulation: increased
[6]
  SpO2: 100%
[7]
  bronchopulmonary dysplasia at 36 weeks post conceptual age: no evidence of bronchopulmonary dysplasia

## [N]=O [Inhaled nitric oxide, nitric oxide]
[8]
  peak pulmonary pressure / pulmonary artery pressure: 45 Torr

## CC(C)C[C@H](N)C(=O)O [L-leucine]
Rat alveolar (L2) cells [3]
  ENO induced intracellular NO signal (DAF): significantly less
Rat alveolar (L2) cells [4]
  ENO induced SNO accumulation: did not augment
[2]
  L-Cys increase of NO signal (effect of competitors): blocked
